From PubChem BioAssay AID504562 (Southern Research Specialized Biocontainment Screening …, 2011)
Active and inactive are the calls of the source. No rule for the calls is given here. Residues, ends and D or L forms follow the SMILES beside them. *: point of attachment. Cbz = O=C(OCc1ccccc1)*

tested on: not listed separately; assay: mammalian cell cytotoxicity, dose response, cytotoxicity control for M. tuberculosis growth inhibitor project, purified and synthesized compounds, set 2 (AID 504562); settings: mammalian cell viability, cytotoxicity counter-screen; at 100 µM (top of the series)

| Compound | viability |
| --- | --- |
| O=C(CSc1nc2ccccc2c(=O)[nH]1)NC1CCCCC1 | 97.5% (inactive) |
| O=C(/C=C\c1cccs1)N1CCN(Cc2ccc3c(c2)OCO3)CC1 | 91.2% (inactive) |
| COC(=O)c1ccc(CNc2c(N3CCCC3)c(=O)c2=O)cc1 | 97.3% (inactive) |
| CCOC(=O)COc1ccc(/C=C2\NC(=S)N(CC)C2=O)cc1 | 91.2% (inactive) |
| Nc1c(C(=O)NC2CCCCC2)nsc1C(=O)OCC(=O)NC1CCCCC1 | 93.5% (inactive) |
| O=C(CSc1nc2ccccc2c(=O)[nH]1)NCc1ccc(Cl)cc1 | 89.5% (inactive) |
| COc1cc(NC(=O)C/C(C)=N/NC(=O)c2ccccn2)c(OC)cc1Cl | 103% (inactive) |
| CC1CCN(C(=O)C2CCN(c3nnc(-n4cccc4)s3)CC2)CC1 | 92.8% (inactive) |
| Cc1ccc(NC(=O)C2C3/C=C\CCCCC32)cc1C (stereo unspecified) | 97% (inactive) |
| COC(=O)C1CC(=O)N(c2ccc(OCc3ccccc3Cl)cc2)C1 (stereo unspecified) | 100% (inactive) |
| CCc1ccc(/C=C2/C(=O)N(C)C(=S)N2CC(=O)OC)s1 | 101% (inactive) |
| Cc1nc(SCC(=O)NC2CCCCC2)[nH]c(=O)c1C | 91.7% (inactive) |
| O=C1C(Br)=Cc2cccc3cccc1c23 | 89.2% (inactive) |
| CCOC(=O)COn1c2c(c3c4no[n+]([O-])c4ccc31)CCCC2 | 87.9% (inactive) |
| COC(=O)C(C)Oc1ccc(-c2nccc(-c3ccccn3)n2)cc1 (stereo unspecified) | 100% (inactive) |
| CC[N+](C)(CC)CCCCOc1ccc2c(c1)C(=O)c1cc(OCCCC[N+](C)(CC)CC)ccc1-2 | 101% (inactive) |
| CCOC1OC(=O)C(Cl)=C1Nc1ccccc1C (stereo unspecified) | 91.1% (inactive) |
| Cc1ccc2ccc3ccc(C)nc3c2n1 | 68.3% (inactive) |
| COC(=O)CCc1nc2c(C#N)c(-c3ccc(Cl)cc3)ccn2n1 | 99.6% (inactive) |
| CC(=NCc1ccc2c(c1)OCO2)C1=C(O)c2ccccc2C1=O | 88.7% (inactive) |

tested on: mammalian cell viability, cytotoxicity counter-screen; assay: as above; settings: not given

| Compound | CC50 [µM] |
| --- | --- |
| Cc1cccc(/C=C/C(=O)c2ccc([N+](=O)[O-])o2)c1 | 53.1 |
| CCOC(=O)c1ccc(NC(=O)Cn2ncc(Cl)c(Cl)c2=O)cc1 | 7.7 |
| COC(=O)C(Nc1nc(SCC(=O)NC2CCCCC2)nc2ccccc12)c1ccccc1 (stereo unspecified) | 88 |
| S=c1nc[nH]c2nc[nH]c12 | 38.1 |
| COC(=O)c1cc(=O)n(-c2ccc(F)cc2)c(=Nc2ccc(F)cc2)s1 | 20.8 |
| CC(C)NC(=O)c1sc(=S)n2c1[nH]c(=O)c1ccc(C(=O)NCCc3ccc(Cl)cc3)cc12 | 68.8 |
| CCC(C)Nc1ccc(NC(C)CC)cc1 (stereo unspecified) | 16.5 |
| CCOC(=O)CNC(=O)[C@H](Cc1ccccc1)NC(=O)OCc1ccccc1 (Cbz-Phe-Gly-OEt) | 68.9 |
| CNc1nc(SCc2ccccc2Cl)nc2c1CCCC2 | 46.1 |
| Cc1ccc(C(=O)N/N=C(/CC(=O)c2cccs2)C(F)(F)F)cc1 | 31.7 |
| Cc1ccc2c(c1)c(C1=c3ccccc3=NC1=O)c(O)n2C | 14.3 |
